Laboratory results taken from US20240167075A1, “METHODS FOR ASSAYING ENZYME ACTIVITY” (Regeneron Pharmaceuticals, Inc., priority 2022, published 2024).
Entries after “also recorded” stand apart in the source; their conditions may differ.

Key:
Type in all cases: biochemical
[1] = system: β4GALT1; assay: commercial Phosphate Glycosyltransferase Activity kit (R&D Systems), malachite green phosphate detection; conditions: UDP-Gal glycosyl donor, coupling phosphatase; FIG. 4
From the text: The commercial Phosphate Glycosyltransferase Activity kit was purchased from R&D Systems. The principle of the assay along with the materials provided were utilized according to manufacturer's conditions. In brief, a diphosphonucleotide sugar (such as UDP-Gal) is used as a glycosyl donor and mixed with a glycosyl acceptor, a phosphatase, and a glycosyltransferase. Glycosyltransferase activity exposes a phosphate of the glycosyl donor to phosphatase activity, releasing free phosphate. The amount of phosphate present should be directly proportional to the amount of formed glycosylated product. The kit also uses a specific phosphatase to remove an inorganic phosphate quantitatively from UDP. The released inorganic phosphate is subsequently quantitated by sensitive colorimetric malachite green phosphate detecting reagents. The amount of inorganic phosphate released by the coupling phosphatase should be equal to the nucleotide sugar consumed or glycoconjugate product generated. Therefore, the rate of inorganic phosphate products should reflect the kinetics of a glycosyltransferase reaction (specific activity of the enzyme). The steps as performed are outlined in FIG. 3.
To estimate the amount of UDP produced in the enzymatic reaction, a phosphate standard curve was established according to manufacturer's conditions. […]

[2] = system: β4GALT1; assay: HILIC-FLR-MS based assay of β4GALT1 activity with 2-AB-G0F labeling substrate; conditions: 1.1 pmol B4GALT1, 1.7 nmol UDP-Gal, 10 pmol 2-AB-G0F, room temperature, 0 to 60 minutes; FIG. 8, 12, 13
Method: Specifically, the enzymatic activities were measured using uridine diphosphate galactose (UDP-Gal) as a donor substrate and a labeled glycan (2-AB-G0F) as the labeling substrate. The experiment was carried out over eight different time points.
The enzymatic reaction was initiated by adding 1.1 pmol of B4GALT1 into a mixture of 1.7 nmol UDP-Gal (the glycosyl donor) and 10 pmol of 2-AB-G0F (the glycosyl acceptor), and the mixture was incubated at room temperature for 2, 5, 10, 15, 25, 40, and 60 minutes. The sample representing the initial time point (0 min) was prepared by omitting the enzyme. This HILIC-FLR-MS based method was used to quantitate both the decrease of UDP-Gal and the increase in formation of the products (G1F/G2F).
All samples were analyzed using an Acquity UPLC I-Class coupled with Vion IMS Q-Tof (Waters, Milford, MA, USA). A Waters Acquity UPLC Glycoprotein BEH Amide chromatographic column (300 Å, 150 mm×2.1 mm, 1.7 μm) was used to separate the analytes with a column temperature of 60° C. and a flow rate of 0.5 mL/minute. Mobile phase A was 50 mM ammonium acetate at a pH 4.4, and mobile phase B was acetonitrile. A 5 μL aliquot of each mixture was injected onto the column for HILIC-MS analysis. The sample run time was 12 minutes.
The samples were monitored using a UV detector at a wavelength of 280 nm and fluorescence with excitation at a wavelength of 330 nm and emission at a wavelength of 420 nm. The Waters Vion IMS Q-Tof mass spectrometer was operated in positive mode and the mass spectra were acquired with a m/z range between 600 and 2000. UDP-Gal was quantitated and the data were collected and processed using UNIFI software (Waters).

[3] = system: β4GALT1; assay: HILIC-UV/MS based assay of β4GALT1 activity (method of Montasser et al.)
From the text: Montasser et al. attempted to assay enzyme activity using a method involving quantification of the β4GALT1 substrate UDP-Gal, by measuring its peak area using hydrophilic interaction chromatography-ultraviolet detection-mass spectroscopy. The method as outlined in Montasser et al. was followed, using HILIC-UV-MS to quantitate the decrease of UDP-Gal as a measure of β4GALT1 activity. In particular, the decrease of UDP-Gal could be measured using UV detection and the corresponding increase of GlcNAc-Gal could be measured using MS.
The glycosyl donor was 1.7 nmol UDP-Gal; the glycosyltransferase was 1.1 pmol β4GALT1; and the glycosyl acceptor was 500 nmol GlcNAc. All samples were analyzed using an Acquity UPLC I-Class coupled with Vion IMS Q-Tof (Waters, Milford, MA, USA). A Waters Acquity UPLC Glycoprotein BEH Amide chromatographic column (300 Å, 150 mm×2.1 mm, 1.7 μm) was used to separate the analytes with a column temperature of 45° C. and a flow rate of 0.2 mL/minute. Mobile phase A was 50 mM ammonium acetate at a pH 7.5, and mobile phase B was 5% (v/v) 25 mM ammonium acetate at a pH 7.5 in acetonitrile. A 1 μL aliquot of each mixture (wildtype and mutant β4GALT1) was injected for analysis.
The difference in activity between the wildtype and mutant β4GALT1 was tested using paired two-sided Student's t-test.

Molecule: Beta-1,4-galactosyltransferase 1 [wildtype β4GALT1]
- specific activity (enzyme activity) determined using a commercial kit [1]: less active than β4GALT1 with N352S mutation
- fluorescent signal for 2-AB-G0F (labeling substrate) over time [2]: reduction in the signal; also recorded: declines substantially over time
- signal for the products 2-AB-G1F and 2-AB-G2F over time [2]: increase substantially over time
- decrease in UDP-Gal (UV peak area) ([3]; 1.7 nmol UDP-Gal, 1.1 pmol β4GALT1, 500 nmol GlcNAc, 2, 5, 10, 15, 25, 40, and 60 minutes, FIG. 5): significantly more
- increase in the amounts of the product (GlcNAc-Gal) over time, MS ([3]; 2, 5, 10, 15, 25, 40, and 60 minutes, FIG. 6): significantly more
- activity suggested by decrease in UDP-Gal ([3]; wildtype compared to mutant, FIG. 5): higher activity

B1: β4GALT1 with N352S mutation: missense variant (rs551564683, p.Asn352Ser) in β4GALT1 (protein, UniProt P15291 1-398, looked up, variant N352S)
chain: MRLREPLLSGSAAMPGASLQRACRLLVAVCALHLGVTLVYYLAGRDLSRLPQLVGVSTPLQGGSNSAAAIGQSSGELRTGGARPPPPLGASSQPRPGGDSSPVVDSGPGPASNLTSVPVPHTTALSLPACPEESPLLVGPMLIEFNMPVDLELVAKQNPNVKMGGRYAPRDCVSPHKVAIIIPFRNRQEHLKYWLYYLHPVLQRQQLDYGIYVINQAGDTIFNRAKLLNVGFQEALKDYDYTCFVFSDVDLIPMNDHNAYRCFSQPRHISVAMDKFGFSLPYVQYFGGVSALSKQQFLTINGFPNNYWGWGGEDDDIFNRLVFRGMSISRPNAVVGRCRMIRHSRDKKNEPSPQRFDRIAHTKETMLSDGLNSLTYQVLDVQRYPLYTQITVDIGTPS
- fluorescent signal for 2-AB-G0F (labeling substrate) over time [2]: less so
- signal for the products 2-AB-G1F and 2-AB-G2F over time [2]: less so
